We go through 1 substance from patent publication US11505797B2, “Gene knockout of variant NRF2 for treatment of cancer” (Christiana Care Health Services, Inc., priority 2019, dated 2022).

The test system of assay [1] is R34G-mutated NRF2 sequence. As to the kind of experiment: In vitro cleavage reaction, R34G-mutated NRF2 amplicons. In kind it is biochemical, human. The following applies: gel electrophoresis; for cleavage specificity, NRF2 expression plasmid and 901 bp amplicons: wildtype versus R34G NRF2, RNP 1 μM, DNA 100 ng. The protocol: (§1) As proof of concept, an in vitro cleavage reaction was conducted to assess the level of discrimination using the R34G guide RNA in a ribonucleoprotein complex (RNP). The in vitro cleavage reaction encompasses complexing target specific-guide RNA with Cas9 protein to form a ribonucleoprotein (RNP). The RNP is incubated with DNA of interest (100 ng) and the reaction and cleavage products are visualized by gel electrophoresis. For this experiment, wildtype and R34G-mutated NRF2 PCR products (901 bp) from an NRF2 expression plasmid (FIG. 21) were incubated with R34G-targeting RNP complex (1 μM) and cleavage products were visualized by gel electrophoresis, shown in FIG. 22.
Once the sequences were verified, genomic DNA from each cell line was used to amplify exon 2 of NRF2. The PCR products (530 bp) from each cell line were then used in in vitro cleavage reactions under various parameters to test specificity and fidelity of the R34G-targeting RNP. For these cleavage reactions, expected cleavage products would appear at 385 and 145 bp as indicated by the red lines along the ladder, with uncut product appearing at 530 bp. FIG. 24 depicts the gel image from an in vitro cleavage reaction using wildtype NRF2 sequence from parental A549 cells and R34G-mutated NRF2 sequence from the A549 R34G-6 cells. An increasing concentration (0.5-5 pmol) of R34G-targeting RNP was used to determine the threshold and fidelity of the sequence. […] Uncut product (top band, 530 bp) can still be seen in lanes 7-10, which corresponds to the heterozygosity of the R34G mutation in the A549 R34G-6 cell line. Therefore, the wildtype NRF2 allele in the A549 R34G-6 cell line acts as an internal negative control.
Another in vitro cleavage reaction was conducted to assess the cleavage efficiency of the wildtype NRF2 sequence to ensure the R34G-targeting RNP was, in fact, not cleaving the wildtype NRF2 sequence because of the lack of the R34G mutation. A guide RNA with a cut site 29 bp upstream (labeled Neh2 RNP) from the R34G RNP cut site was selected and used as a positive cleavage control. […] Lanes 1-8 were reactions using wildtype NRF2 sequence while lanes 9-16 were reactions using R34G-mutated NRF2 sequence. In lanes 2-4 and 10-12, PCR products were incubated with increasing concentrations (1, 3 & 5 pmol) of RNP targeting the beginning of exon 2 (Neh2 RNP). The Neh2 guide RNA sequence is: 5′ […] 3′ (SEQ ID NO:13) which is a native CRISPR site and used as the positive control for cleavage for these reactions. […] In lanes 6-8 and 14-16, PCR products were incubated with increasing concentrations (1, 3 & 5 pmol) of R34G-targeting RNP. […] This further reinforces the specificity of the R34G-targeting RNP only recognizing the target DNA in the presence of the R34G mutation in exon 2 of NRF2. […]

Assay [2] deals with wildtype NRF2 gene in NCI-H1703 cell line. Kind of assay: TIDE analysis after transfection of R34G-targeting RNP, H1703 parental cells. In kind it is cell-based, human. The protocol: (§2) The in vitro cleavage reactions were further assessed through cell based-experiments using the same cell lines: A549 and H1703 parental cell lines and the A549 R34G-6 cell line. The cell lines were cultured under the standard conditions and transfected by electroporation (Lonza, Nucleofection) using previously established parameters. FIGS. 27-29 depict the genetic analysis of eight separate experiments using all three cell lines after transfection of the R34G-targeting RNP. This experiment was conducted under three different conditions. The first condition was using an equimolar concentration of duplexed guide RNA to Cas9. The second condition was using five times the amount of duplexed guide RNA to Cas9, along with using a GFP (Green Fluorescent Protein) expression vector to measure transfection efficiency and to sort the GFP-positive population for further analysis. The third condition was using five times the amount of single guide RNA to Cas9, along with the GFP expression vector and sorting of the GFP-positive population for further analysis.
FIG. 29 depicts the genetic analysis after transfection of the R34G-targeting RNP in the NCI-H1703 cell line, which contains a wildtype NRF2 gene and no native CRISPR recognition site.

Assay [3] concerns R34G-mutated NRF2 gene in A549 R34G-6 cells. As to the kind of experiment: TIDE analysis after transfection of R34G-targeting RNP, A549 R34G-6 cells. The assay is classed as cell-based, human. The following applies: GFP-positive sorted population. The protocol:
as §2
FIG. 28 depicts the genetic analysis after transfection of the R34G-targeting RNP in the A549 R34G-mutated clonal cell line (A549 R34G-6). The A549 R34G-6 cells contain a heterozygous R34G mutation in exon 2 of the NRF2 gene, creating a new CRISPR recognition site for the R34G-targeting RNP. […] The significant total indel efficiency indicates the R34G-targeting RNP is very active. […] The lower R2 value indicates some of the sequence analysis is unaccounted for likely because of sequence quality. […] Although only a speculation, the R34G-targeting RNP does differentiate between the wildtype and R34G-mutated alleles within the clonal cell line.

In assay [4] the test system is wildtype NRF2 gene in A549 parental cells. Kind of assay: TIDE analysis after transfection of R34G-targeting RNP, A549 parental cells. The assay is classed as cell-based, human. As for the experimental part: as §2
FIG. 27 depicts the genetic analysis after transfection of the R34G-targeting RNP in the A549 parental cells. The A549 parental cells contain a wildtype NRF2 gene therefore there is no native CRISPR/Cas9 recognition site for the R34G-targeting RNP. […]

A further assay deals with wildtype NRF2 sequence. As to the kind of experiment: In vitro cleavage reaction, wildtype NRF2 amplicons. The following applies: A549 or H1703 parental amplicons, 0.5-5 pmol RNP, gel electrophoresis. The assay is classed as biochemical, human. As for the experimental part:
as §1
Once the sequences were verified, genomic DNA from each cell line was used to amplify exon 2 of NRF2. The PCR products (530 bp) from each cell line were then used in in vitro cleavage reactions under various parameters to test specificity and fidelity of the R34G-targeting RNP. For these cleavage reactions, expected cleavage products would appear at 385 and 145 bp as indicated by the red lines along the ladder, with uncut product appearing at 530 bp. FIG. 24 depicts the gel image from an in vitro cleavage reaction using wildtype NRF2 sequence from parental A549 cells and R34G-mutated NRF2 sequence from the A549 R34G-6 cells. […]

Setting [5] is: top panel, bulk unsorted population.

“And” between values parts separate entries of the source, which are not always exact repeats. Equal entries are not always repeated. “Also recorded” adds a separate entry of the source.

In the case of “5′ GATATAGATCTTGGAGTAAGTGG 3′ [R34G-targeting RNP]”, in assay [1] (A549 R34G-6 amplicon, 0.5-5 pmol RNP), the “cleavage of R34G-mutated NRF2 amplicon (530 bp)” value is recorded as “cleavage products can be seen even with half of the standard concentration; also recorded: clearly seen”. For the same substance, the “cleavage specificity, NRF2 expression plasmid and 901 bp amplicons” value in assay [1] is “only recognizes and cleaves the mutated DNA sequence”; in assay [1] (listed as R34G RNP), “only recognizes and cleaves with the mutation present”. In addition, the total indel efficiency is 4.6% in assay [2] (bottom panel, GFP-sorted population); 0.0% in assay [2] (setting [5]); 32.7% in assay [3] (bottom panel); 55.7% in assay [3] (middle panel); 11.4% and 11.3% in assay [4] (bottom panel, GFP-positive sorted population); 11.8% and 11.4% in assay [4] (setting [5]). For the same substance, in assay [3] (middle panel), the “sequence analyzed that is wildtype” value is 32.0%. Moreover, the “cleavage of wildtype NRF2 amplicon (530 bp)” value in the assay on wildtype NRF2 sequence is “does not result in cleavage of wildtype NRF2 sequence; also recorded: minimal cleavage seen in lanes 6-8”.
